# Structures can show the parent of a compound that is named as a salt. Where two headings read alike, the source gives them in different places.
# Assays:
# CDK1/cycA1 = molecular target: T1, CDK1/cycA1 (Homo sapiens, UniProt P06493); assay: In vitro kinase assay (PKLight luciferase ATP readout), CDK1; assay type: biochemical
# T1 construct: purchased ProQinase GmbH
# Description: (§1) Purified recombinant CDK1/cycA1, CDK2/cycA1, CDK4/cycD1, CDK5/p35NCK, CDK6/cycD1, CDK7/CycH/MAT1, and CDK9/CycT1 were purchased from ProQinase GmbH. Kinase assays were performed according to manufacturer's protocols. Rb-CTF (ProQinase GmbH) (cat number: 0040-0000-6) was used as the kinase substrate for CDK1, CDK2, CDK4, and CDK6 kinases. […] A luciferase assay (PKLight assay; Cambrex) was used to determine ATP remaining at the end of the kinase reaction, which provides a measure of kinase activity, according to the manufacturer's protocols.
# (§2) Kinase assays were carried out by incubation of increasing amounts of test compound with purified recombinant CDK-Cyclin complex, followed by measurement of free ATP remaining in the reaction using the luciferase assay kit (PKLight, Cambrex) which therefore provided a measure of inhibition for the specific CDK.
# (§3) 5 μL of 1× kinase buffer (Cell Signalling Technologies) was mixed with 200 ng CDK1, 200 ng CDK2, 50 ng CDK4, 100 ng CDK5, or 200 ng CDK6 with 5 μg Rb-CTF and 300 ng CDK7 or 200 ng CDK9 with 500 μM RNA Poll II CTD peptide. […] The mixture was incubated at 30° C. for 30 minutes. The reaction is stopped with 20 μL of Stop Solution (provided in the PKLight kit) for 10 minutes at room temperature. Then 40 μL of the luciferase mix was added to the reaction mixture which was incubated for a further 10 minutes at room temperature and measured using the Tecan Infinite 2000 plate reader. GraphPad Prism Software was used to generate standard curve and determine the IC50's for each CDK.
# CDK4/cycD1 = molecular target: T2, CDK4/cycD1 (Homo sapiens, UniProt P11802); assay: In vitro kinase assay (PKLight luciferase ATP readout), CDK4; assay type: biochemical; conditions: ATP at Km; three experiments
# T2 construct: purchased ProQinase GmbH
# T2 sequence (P11802 whole entry): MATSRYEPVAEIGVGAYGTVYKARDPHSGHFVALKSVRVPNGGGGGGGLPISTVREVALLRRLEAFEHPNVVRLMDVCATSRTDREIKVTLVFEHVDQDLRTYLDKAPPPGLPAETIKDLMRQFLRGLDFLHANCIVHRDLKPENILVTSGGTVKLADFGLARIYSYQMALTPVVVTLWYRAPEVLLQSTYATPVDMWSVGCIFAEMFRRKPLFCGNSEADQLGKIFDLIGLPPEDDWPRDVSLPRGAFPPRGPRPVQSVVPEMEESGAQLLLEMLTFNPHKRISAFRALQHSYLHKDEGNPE
# T2 sequence (P24385 whole entry partner): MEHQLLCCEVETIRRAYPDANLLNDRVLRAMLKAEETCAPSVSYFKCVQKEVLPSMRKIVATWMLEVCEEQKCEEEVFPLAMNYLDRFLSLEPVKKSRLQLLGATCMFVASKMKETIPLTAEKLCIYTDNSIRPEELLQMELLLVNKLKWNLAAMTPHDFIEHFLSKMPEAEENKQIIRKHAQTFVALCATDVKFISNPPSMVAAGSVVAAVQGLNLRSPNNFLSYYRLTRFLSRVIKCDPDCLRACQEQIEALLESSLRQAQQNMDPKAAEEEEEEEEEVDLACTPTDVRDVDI
# Description: as §1, §2
# as §3, with “The reaction is stopped with 20 μL of Stop Solution (provided in the PKLight kit) for 10 minutes at room temperature.” left out, “GraphPad Prism Software was used to generate standard curve and determine the IC50's for each CDK.” left out
# CDK5/p35NCK = molecular target: T3, CDK5/p35NCK (Homo sapiens, UniProt Q00535); assay: In vitro kinase assay (PKLight luciferase ATP readout), CDK5; assay type: biochemical; conditions: ATP at Km; three experiments
# T3 construct: purchased ProQinase GmbH
# T3 sequence (Q00535 whole entry): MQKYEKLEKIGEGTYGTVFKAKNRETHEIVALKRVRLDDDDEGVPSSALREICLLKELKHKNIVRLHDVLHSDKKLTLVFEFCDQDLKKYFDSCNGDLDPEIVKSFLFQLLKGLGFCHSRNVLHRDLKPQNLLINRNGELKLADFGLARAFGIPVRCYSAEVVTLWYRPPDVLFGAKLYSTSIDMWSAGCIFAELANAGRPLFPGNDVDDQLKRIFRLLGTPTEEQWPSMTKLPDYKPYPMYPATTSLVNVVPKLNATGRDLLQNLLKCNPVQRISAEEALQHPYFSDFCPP
# T3 sequence (Q15078 whole entry partner): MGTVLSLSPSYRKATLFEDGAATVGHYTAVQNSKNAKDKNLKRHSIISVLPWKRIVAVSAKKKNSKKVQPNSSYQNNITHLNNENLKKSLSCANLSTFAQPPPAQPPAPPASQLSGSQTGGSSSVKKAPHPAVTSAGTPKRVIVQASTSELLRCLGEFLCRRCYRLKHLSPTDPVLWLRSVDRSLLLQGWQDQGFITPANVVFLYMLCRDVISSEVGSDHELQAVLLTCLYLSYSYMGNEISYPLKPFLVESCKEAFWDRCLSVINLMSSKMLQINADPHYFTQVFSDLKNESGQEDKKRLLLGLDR
# Description: as §1, §2
# as §3, with “The reaction is stopped with 20 μL of Stop Solution (provided in the PKLight kit) for 10 minutes at room temperature.” left out, “GraphPad Prism Software was used to generate standard curve and determine the IC50's for each CDK.” left out
# CDK6/cycD1 = molecular target: T4, CDK6/cycD1 (Homo sapiens, UniProt Q00534); assay: In vitro kinase assay (PKLight luciferase ATP readout), CDK6; assay type: biochemical; conditions: ATP at Km; three experiments
# T4 construct: purchased ProQinase GmbH
# T4 sequence (Q00534 whole entry): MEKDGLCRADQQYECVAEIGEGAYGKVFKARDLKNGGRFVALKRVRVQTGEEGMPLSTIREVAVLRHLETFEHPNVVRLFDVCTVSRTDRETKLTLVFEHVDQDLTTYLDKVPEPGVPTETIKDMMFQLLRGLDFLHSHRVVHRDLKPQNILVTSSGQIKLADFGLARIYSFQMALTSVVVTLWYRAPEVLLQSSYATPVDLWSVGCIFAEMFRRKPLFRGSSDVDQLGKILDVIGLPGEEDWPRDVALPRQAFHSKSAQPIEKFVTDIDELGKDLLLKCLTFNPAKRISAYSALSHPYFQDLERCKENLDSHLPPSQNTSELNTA
# T4 sequence (P24385 whole entry partner): as the sequence (P24385 whole entry partner) above
# Description: as §1, §2
# as §3, with “The reaction is stopped with 20 μL of Stop Solution (provided in the PKLight kit) for 10 minutes at room temperature.” left out, “GraphPad Prism Software was used to generate standard curve and determine the IC50's for each CDK.” left out
# MCF7 cells = assay: Cell growth inhibition assay (sulforhodamine B), MCF7; assay type: cell-based; conditions: Homo sapiens
# Description: (§4) All cells were purchased from the American Type Culture Collection (ATCC) and MCF7 cells were routinely cultured in Dulbecco's Modified Eagle's Medium (DMEM) supplemented with 10% fetal calf serum (FCS) (First Link) and HCT116 cells were routinely cultured in Roswell Park Memorial Instititute Medium (RPMI) supplemented with 10% FCS. Cell growth was assessed using a known sulforhodamine B assay (see, e.g., Skehan et al., 1990).
# (§5) MCF-7 cells purchased from ATCC (USA) were routinely passaged in DMEM, supplemented with 10% FCS and HCT116 cells purchased from ATCC (USA) were routinely passaged in RPMI supplemented with 10% FCS and kept in a 37° C. incubator with 5% CO2. The growth assay for both cell lines was performed in the appropriate media using the exact same protocol as described here. For the growth assay, 5000 cells were seeded into each well of 96-well plates in DMEM containing 10% FCS. Test compounds prepared in DMSO were added to the medium at concentrations ranging from 0.00038-100 μM. The cells were incubated for a further 72 hours, at which time they were fixed by the addition of 100 μL/well of ice-cold 40% trichloroacetic acid (TCA). The plates were left for 1 hour at 4° C., washed in water and 100 μL of 0.4% (w/v) sulforhodamine (SRB; Sigma-Aldrich, UK) prepared in 1% acetic acid was added. Plates were washed in 1% acetic acid to remove excess SRB reagent, air dried, and bound dye was solubilized by the addition of 100 μL of 10 mM tris base. The plates were read at 492 nm using a plate reader.
# HCT116 cells = assay: Cell growth inhibition assay (sulforhodamine B), HCT116; assay type: cell-based; conditions: Homo sapiens, HCT-116
# Description: as §4, §5
# [1] = test system: human tumor cell lines (NCI60); assay: NCI60 cancer cell line screen; assay type: cell-based
# Description: To extend the analysis to a more extensive set of cancer cell lines, PPDA-001 was submitted to the National Cancer Institute's Division of Cancer Treatment and Diagnosis in vitro screen of human tumor cell lines (http://dtp.nci.nih.gov/branches/btb/ivclsp.html).
# Each line represents one cell line.
# HCT116 tumour xenograft = HCT116 tumour xenograft study; assay type: in vivo, female Balb/c nu/nu mice
# [2] = test system: phospho-ER S118 in MCF-7 cells; assay: Immunoblot of ER serine-118 phosphorylation in MCF-7 cells; assay type: cell-based; conditions: 1 μmol/L, time course, FIG. 6
# Description: Cell lysates were prepared by the addition of RIPA buffer (Sigma-Aldrich, cat no: R0278). Immunoblotting was carried out using standard methods (see, e.g., Harlow & Lane, 1988, Antibodies: A Laboratory Manual, Cold Spring Harbor Laboratory Press, USA), with antibodies for the protein or phosphorylation mark indicated. β-actin was used as control for protein loading. The second antibody was HRP-coupled Goat anti Mouse or Rabbit IgG.
# CDK2/cycA1 = molecular target: T5, CDK2/cycA1 (Homo sapiens, UniProt P24941); assay: In vitro kinase assay (PKLight luciferase ATP readout), CDK2; assay type: biochemical; conditions: ATP at Km; read-out: In vitro Kinase Inhibition CDK2 IC50
# T5 construct: purchased ProQinase GmbH
# Description: as §1, §2, §3
# CDK7/CycH/MAT1 = molecular target: T6, CDK7/CycH/MAT1 (Homo sapiens, UniProt P50613); assay: In vitro kinase assay (PKLight luciferase ATP readout), CDK7; assay type: biochemical; conditions: for IC50: ATP at Km, read-out: In vitro Kinase Inhibition CDK7 IC50; for Selectivity CDK1/CDK7: ratio of CDK1 IC50 to CDK7 IC50; for Selectivity CDK2/CDK7: ratio of CDK2 IC50 to CDK7 IC50
# T6 construct: purchased ProQinase GmbH
# T6 sequence (P50613 whole entry): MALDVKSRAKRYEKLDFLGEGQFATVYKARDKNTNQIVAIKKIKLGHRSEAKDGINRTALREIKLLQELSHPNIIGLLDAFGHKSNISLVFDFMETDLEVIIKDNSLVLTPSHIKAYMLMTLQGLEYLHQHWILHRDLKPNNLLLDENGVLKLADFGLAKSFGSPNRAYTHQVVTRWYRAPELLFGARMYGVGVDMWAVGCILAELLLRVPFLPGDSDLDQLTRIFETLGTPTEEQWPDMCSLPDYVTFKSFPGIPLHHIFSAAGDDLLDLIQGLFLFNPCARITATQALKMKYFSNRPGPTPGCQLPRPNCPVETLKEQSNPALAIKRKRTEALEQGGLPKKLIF
# T6 sequence (P51946 whole entry partner): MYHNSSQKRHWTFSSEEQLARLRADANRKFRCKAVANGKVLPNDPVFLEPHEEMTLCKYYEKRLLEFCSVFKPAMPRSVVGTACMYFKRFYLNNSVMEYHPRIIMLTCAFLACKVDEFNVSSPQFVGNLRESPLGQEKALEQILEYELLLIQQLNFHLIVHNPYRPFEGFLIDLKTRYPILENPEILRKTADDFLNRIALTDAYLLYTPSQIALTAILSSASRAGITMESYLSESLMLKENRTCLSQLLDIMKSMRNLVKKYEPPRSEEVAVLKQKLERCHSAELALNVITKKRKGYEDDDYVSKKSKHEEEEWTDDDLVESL
# T6 sequence (P51948 whole entry partner): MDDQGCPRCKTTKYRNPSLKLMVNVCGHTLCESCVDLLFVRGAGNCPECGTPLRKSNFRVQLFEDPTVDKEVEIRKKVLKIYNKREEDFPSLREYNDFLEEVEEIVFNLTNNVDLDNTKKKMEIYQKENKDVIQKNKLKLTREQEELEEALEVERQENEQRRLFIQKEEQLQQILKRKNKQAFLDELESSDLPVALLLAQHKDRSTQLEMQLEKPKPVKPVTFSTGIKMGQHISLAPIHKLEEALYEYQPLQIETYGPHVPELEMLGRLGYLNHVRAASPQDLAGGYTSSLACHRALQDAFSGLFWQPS
# Description: as §1, §2, §3
# [3] = 72 hours, SRB assay, read-out: Growth Inhibition, GI50 MCF7
# [4] = 72 hours, SRB assay, read-out: Growth Inhibition, GI50 HCT116
# [5] = ATP at Km, read-out: In vitro Kinase Inhibition CDK1 IC50
Compound,IC50 (CDK1/cycA1) [nM],IC50 (CDK4/cycD1) [nM],IC50 (CDK5/p35NCK) [nM],IC50 (CDK6/cycD1) [nM],GI50 (MCF7 cells; [3]) [nM],"GI50 (MCF7 cells; read-out: GI50, breast (MCF7) cancer cell line) [nM]",GI50 (HCT116 cells; [4]) [nM],"GI50 (HCT116 cells; read-out: GI50, colorectal (HCT116) cancer cell line) [nM]",IC50 (CDK1/cycA1; [5]) [nM],IC50 (CDK2/cycA1) [nM],IC50 (CDK7/CycH/MAT1) [nM],Selectivity CDK1/CDK7 (CDK7/CycH/MAT1) [fold],Selectivity CDK2/CDK7 (CDK7/CycH/MAT1) [fold],"GI50 ([1]; mean of all 60 cell lines, read-out: mean GI50 over 60 cancer cell lines) [nM]","GI50 ([1]; range over all 60 cell lines, read-out: range GI50 over 60 cancer cell lines) [nM]","reduction in tumor growth (HCT116 tumour xenograft; 50 mg/kg/bi-daily and 100 mg/kg once daily PO, compared with the control arms) [%]","Animal weight (percent body weight) (HCT116 tumour xenograft; PPDA-001 treatment arms (50 mg/kg bi-daily, 100 mg/kg once daily, PO), over the course of the study, vehicle 98%) [%]",phosphorylation of ER at serine-118 (phospho-ER S118) [2]
"CC(C)c1cnn2c(NCc3ccccc3)cc(NC[C@H]3CCNC[C@@H]3O)nc12 [PPDA-001, (3R,4R)-4-(((7-(Benzylamino)-3-isopropylpyrazolo[1,5-a]pyrimidin-5-yl)amino)methyl)piperidin-3-ol hydrochloride]",1520,42100,9000,32100,960,< 1000,630,< 1000,–,–,–,–,–,280,40 to 2100,65,92,inhibits phosphorylation of ER at serine-118
CC(C)c1cnn2c(NCC3CCCCC3)cc(NC[C@]3(O)CCNC[C@H]3O)nc12 (racemic) [PPDA-014],–,–,–,–,45600,–,53500,–,8680,481,975,8.9,0.5,–,–,–,–,–
"CC(C)c1cnn2c(Nc3ccc(N4CCN(C)CC4)cc3)cc(NC[C@H]3CCNC[C@@H]3O)nc12 [PPDA-007, (3R,4R)-4-((3-iso-Propyl-7-(4-(4-methylpiperazin-1-yl)phenylamino)pyrazolo[1,5-a]pyrimidin-5-ylamino)methyl)piperidin-3-ol hydrochloride]",–,–,–,–,2100,–,4100,–,1150,503,461,2.5,1.1,–,–,–,–,–
"CC(C)c1cnn2c(NCc3ccccc3)cc(N[C@@H]3CNCC[C@H]3O)nc12 [PPDA-022, (3R,4R)-3-(7-(Benzylamino)-3-iso-propyl-pyrazolo[1,5-a]pyrimidin-5-ylamino) piperidin-4-ol]",–,–,–,–,3700,–,10400,–,1900,568,73,26,7.8,–,–,–,–,–
COC[C@H]1C[C@@H](Nc2cc(NCc3ccccc3)n3ncc(C(C)C)c3n2)CN1 [PPDA-027],–,–,–,–,3400,–,8900,–,253,680,18,14,38,–,–,–,–,–
CC(C)c1cnn2c(NCC3CCCCC3)cc(NCC3(O)CCNCC3)nc12 [PPDA-013],–,–,–,–,1200,–,1100,–,330,344,80,4.1,4.3,–,–,–,–,–
"CC(C)c1cnn2c(NCc3ccncc3)cc(NCC3(O)CCNCC3)nc12 [PPDA-010, 4-(((3-iso-Propyl-7-((pyridin-4-ylmethyl)amino)pyrazolo[1,5-a]pyrimidin-5-yl)amino)methyl)piperidin-4-ol hydrochloride]",–,–,–,–,11900,–,25000,–,3620,115,788,4.6,0.1,–,–,–,–,–

# Continued by falling GI50 (MCF7 cells; [3]), values first:
IC50 (CDK1/cycA1) [nM],IC50 (CDK4/cycD1) [nM],IC50 (CDK5/p35NCK) [nM],IC50 (CDK6/cycD1) [nM],GI50 (MCF7 cells; [3]) [nM],"GI50 (MCF7 cells; read-out: GI50, breast (MCF7) cancer cell line) [nM]",GI50 (HCT116 cells; [4]) [nM],"GI50 (HCT116 cells; read-out: GI50, colorectal (HCT116) cancer cell line) [nM]",IC50 (CDK1/cycA1; [5]) [nM],IC50 (CDK2/cycA1) [nM],IC50 (CDK7/CycH/MAT1) [nM],Selectivity CDK1/CDK7 (CDK7/CycH/MAT1) [fold],Selectivity CDK2/CDK7 (CDK7/CycH/MAT1) [fold],Compound,"GI50 ([1]; mean of all 60 cell lines, read-out: mean GI50 over 60 cancer cell lines) [nM]","GI50 ([1]; range over all 60 cell lines, read-out: range GI50 over 60 cancer cell lines) [nM]","reduction in tumor growth (HCT116 tumour xenograft; 50 mg/kg/bi-daily and 100 mg/kg once daily PO, compared with the control arms) [%]","Animal weight (percent body weight) (HCT116 tumour xenograft; PPDA-001 treatment arms (50 mg/kg bi-daily, 100 mg/kg once daily, PO), over the course of the study, vehicle 98%) [%]",phosphorylation of ER at serine-118 (phospho-ER S118) [2]
–,–,–,–,4220,–,7200,–,213,38,111,1.9,0.3,CC(C)c1cnn2c(Nc3ccc(S(=O)(=O)N(C)C)cc3)cc(NC[C@H]3CCNC[C@@H]3O)nc12 [PPDA-005],–,–,–,–,–
–,–,–,–,1500,–,5100,–,1380,2030,18,77,113,"CC(C)c1cnn2c(NCc3ccccc3)cc(NC[C@]3(O)CCNC[C@H]3O)nc12 (racemic) [PPDA-002, (3R,4R)-4-((7-(Benzylamino)-3-iso-propyl-pyrazolo[1,5-a]pyrimidin-5-ylamino)methyl)piperidine-3,4-diol hydrochloride]",–,–,–,–,–
–,–,–,–,300,–,400,–,80,9,29,2.8,0.3,CC(C)c1cnn2c(NCC3CCCCC3)cc(NC[C@@]3(CO)CCNC3)nc12 (racemic) [PPDA-019],–,–,–,–,–
–,–,–,–,200,–,1200,–,177,22,81,2.2,0.3,CC(C)c1cnn2c(NCc3ccccc3Cl)cc(NC[C@@]3(CO)CCNC3)nc12 (racemic) [PPDA-021],–,–,–,–,–
